# Measurements: PubChem BioAssay AID1963843 (Molecular Pharmacology Branch, DTP, NCI, 2024)
# Tested on: 616215-338-R-J1-PDC complex spheroid viability
# Assay: Anticancer human tumor 616215-338-R-J1-PDC patient-derived colon adenocarcinoma cell line growth inhibition [POLQ]
# Conditions: for IC50: curve of first compound; for viability, T/C: stronger effect = lower value
# Experimental: Multicellular complex tumor spheroid response to Polymerase (POL) inhibitors (novobiocin, ART-558, RP6685) in combination with a variety of drugs and investigational agents in selected tumor cell lines
# The POL inhibitors (novobiocin, ART-558, and RP6685) were evaluated both individually and in combination with standard of care and investigational anticancer small molecules within a complex spheroid model of solid tumors. . Complex spheroids include a stromal component modeled by human endothelial cells (HUVEC) and fibroblasts modeled by human mesenchymal stem cells (MSCs). The concentration ranges selected for each drug and investigational agent were based upon clinically achievable concentrations if the clinical Cmax of the agent was known.
# Compounds. The drugs and investigational agents: novobiocin (NSC847541), ART-558 (NSC835418), RP-6685 (NSC848927), peposertib (NSC802822), ceralasertib (NSC780249), elimusertib (NSC800525), camonsertib (NSC841442), AZD-1390 (NSC803789), olaparib (NSC753686), talazoparib (NSC767125), rucaparib (NSC756644), sotorasib (NSC818433), MRTX-1133 (NSC836407), SN-38 (NSC673596), topotecan (NSC609699), epotoside (NSC141540), doxorubicin (NSC123127), gemcitabine (NSC613327), 5-fluorouracil (NSC19893), paclitaxel (NSC125973), vemurafenib (NSC761431), MSA-2 (NSC828583), SN-011 (NSC837082), adavosertib (NSC754352), prexasertib (NSC758257), carboplatin (NSC241240) and oxaliplatin (NSC266046), were obtained from the National Cancer Institute (NCI) Developmental Therapeutics Program Chemical Repository (21). The FDA-approved anticancer drug set is available from the Developmental Therapeutics Program at https://dtp.cancer.gov/organization/dscb/obtaining/. […] The stock solutions were prepared in dimethyl sulfoxide (DMSO, Sigma-Aldrich, St. Louis, MO, cat. D2650), except for the platinum compounds which were prepared in saline (Quality Biological, Gaithersburg, MD, cat. 114-055-101), at 800-fold the tested concentration and stored at -70 degrees C prior to their use. All drugs and investigational agents were tested over a range starting from a high concentration at or near the clinical Cmax and decreasing in half-log increments. If the clinical Cmax for an agent had not been determined, the highest concentration tested was 10 microM, except for SN-38, which was tested at a high concentration of 1 microM.
# Cell Culture. All cells were maintained in an incubator at 37 degrees C and 5% CO2 with 95% humidity. The PDC lines were cultured according to standard operating procedures established by the NCI PDMR (https://pdmr.cancer.gov). Table 3 of the manuscript, lists the cell lines along with the number of the three cell types plated to form the mct-spheroids and media for tumor cell growth. After thawing, all PDC lines, except 997537-175-T-J1-PDC and 415267-285-R-J2-PDC, were cultured in Matrigel-coated flasks prepared with a working solution of 1X Ham's F-12 nutrient mix, without supplementation (Thermo Fisher Scientific, cat. 11765054), 100 U/mL penicillin-streptomycin (Thermo Fisher Scientific, cat. 15140122), and 2.5% Matrigel (Corning Inc., Corning, NY, cat. 354248) for the first three passages. The two PDC lines 997537-175-T-J1-PDC and 415267-285-R-J2-PDC were cultured on uncoated flasks. The 857933-349-R-J2-PDC line was cultured in 6C/Colon 1B media containing advanced DMEM/F-12 (Thermo Fisher Scientific, cat. 12634028), 10 mM HEPES (Thermo Fisher Scientific, cat. 15630080), 1X GlutaMAX supplement (Thermo Fisher Scientific, cat. 35050061), 0.1 mg/mL primocin (InvivoGen, San Diego, CA, cat. ant-pm-2), 10% defined fetal bovine serum, heat inactivated (HyClone Laboratories Inc., Logan, UT, cat. SH30070.03HI), 50% L-WRN conditioned media (ATCC, cat. CRL-3276), 1.25 mM N-Acetyl-L-cysteine (Sigma-Aldrich, cat. A9165), 10 mM nicotinamide (Sigma-Aldrich, cat. N0636), 1X B-27 supplement (Thermo Fisher Scientific, cat. 17504044), 1X N-2 supplement (Thermo Fisher Scientific, cat. […]
# [1] = second compound 0.0316 µM, first compound 0.0316 µM
# [2] = second compound 0.0316 µM, first compound 0.1 µM
# [3] = second compound 0.1 µM, first compound 0.0316 µM
# [4] = second compound 0.1 µM, first compound 0.1 µM
# [5] = second compound 0.316 µM, first compound 0.0316 µM
# [6] = second compound 0.316 µM, first compound 0.1 µM
# [7] = second compound 1 µM, first compound 0.0316 µM
# [8] = second compound 1 µM, first compound 0.1 µM
# [9] = second compound 3.16 µM, first compound 0.0316 µM
# [10] = second compound 3.16 µM, first compound 0.1 µM
# [11] = second compound 10 µM, first compound 0.0316 µM
# [12] = second compound 10 µM, first compound 0.1 µM
# 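Note: spheroids exposed to compounds for one week before readout.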
# 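Throughout, for viability, T/C: percent viability relative to DMSO vehicle wells taken as 100%.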
compound,measurement,setting,value
CC1COCCN1c1cc(C2(S(C)(=N)=O)CC2)nc(-c2ccnc3[nH]ccc23)n1 (centres undefined) + Nc1ccc(C#CCN(C(=O)Cc2ncc(C(F)(F)F)cc2C(F)(F)F)c2ccc(F)cc2)nn1,IC50,second compound 0.0316 µM,4.98 µM
same,IC50,second compound 0.1 µM,5.39 µM
same,IC50,second compound 0.316 µM,6.77 µM
same,IC50,second compound 1 µM,5.38 µM
same,IC50,second compound 3.16 µM,6.99 µM
same,IC50,second compound 10 µM,2.88 µM
same,"viability, T/C",[1],115%
same,"viability, T/C",[2],96.5%
same,"viability, T/C","second compound 0.0316 µM, first compound 0.316 µM",93%
same,"viability, T/C","second compound 0.0316 µM, first compound 1 µM",93.4%
same,"viability, T/C","second compound 0.0316 µM, first compound 3.16 µM",56.9%
same,"viability, T/C","second compound 0.0316 µM, first compound 10 µM",32.6%
same,"viability, T/C",[3],93.9%
same,"viability, T/C",[4],104%
same,"viability, T/C","second compound 0.1 µM, first compound 0.316 µM",94.3%
same,"viability, T/C","second compound 0.1 µM, first compound 1 µM",94.7%
same,"viability, T/C","second compound 0.1 µM, first compound 3.16 µM",63.1%
same,"viability, T/C","second compound 0.1 µM, first compound 10 µM",34.7%
same,"viability, T/C",[5],101%
same,"viability, T/C",[6],97.6%
same,"viability, T/C","second compound 0.316 µM, first compound 0.316 µM",93.8%
same,"viability, T/C","second compound 0.316 µM, first compound 1 µM",97.3%
same,"viability, T/C","second compound 0.316 µM, first compound 3.16 µM",62.3%
same,"viability, T/C","second compound 0.316 µM, first compound 10 µM",43.7%
same,"viability, T/C",[7],108%
same,"viability, T/C",[8],101%
same,"viability, T/C","second compound 1 µM, first compound 0.316 µM",90.9%
same,"viability, T/C","second compound 1 µM, first compound 1 µM",84.7%
same,"viability, T/C","second compound 1 µM, first compound 3.16 µM",59.9%
same,"viability, T/C","second compound 1 µM, first compound 10 µM",36.5%
same,"viability, T/C",[9],87.5%
same,"viability, T/C",[10],95.3%
same,"viability, T/C","second compound 3.16 µM, first compound 0.316 µM",87.4%
same,"viability, T/C","second compound 3.16 µM, first compound 1 µM",83%
same,"viability, T/C","second compound 3.16 µM, first compound 3.16 µM",68.8%
same,"viability, T/C","second compound 3.16 µM, first compound 10 µM",41.6%
same,"viability, T/C",[11],96.5%
same,"viability, T/C",[12],91.5%
same,"viability, T/C","second compound 10 µM, first compound 0.316 µM",78.2%
same,"viability, T/C","second compound 10 µM, first compound 1 µM",92.1%
same,"viability, T/C","second compound 10 µM, first compound 3.16 µM",46.5%
same,"viability, T/C","second compound 10 µM, first compound 10 µM",35.5%
Cn1ncnc1[C@H]1c2n[nH]c(=O)c3cc(F)cc(c23)N[C@@H]1c1ccc(F)cc1 + Nc1ccc(C#CCN(C(=O)Cc2ncc(C(F)(F)F)cc2C(F)(F)F)c2ccc(F)cc2)nn1,IC50,second compound 0.0316 µM,> 0.1 µM
same,IC50,second compound 0.1 µM,> 0.1 µM
same,IC50,second compound 0.316 µM,> 0.1 µM
same,IC50,second compound 1 µM,> 0.1 µM
same,IC50,second compound 3.16 µM,> 0.1 µM
same,IC50,second compound 10 µM,> 0.1 µM
same,"viability, T/C","second compound 0.0316 µM, first compound 0.000316 µM",104%
same,"viability, T/C","second compound 0.0316 µM, first compound 0.001 µM",106%
same,"viability, T/C","second compound 0.0316 µM, first compound 0.00316 µM",99.7%
same,"viability, T/C","second compound 0.0316 µM, first compound 0.01 µM",95.1%
same,"viability, T/C",[1],88.5%
same,"viability, T/C",[2],86.7%
same,"viability, T/C","second compound 0.1 µM, first compound 0.000316 µM",112%
same,"viability, T/C","second compound 0.1 µM, first compound 0.001 µM",91.6%
same,"viability, T/C","second compound 0.1 µM, first compound 0.00316 µM",107%
same,"viability, T/C","second compound 0.1 µM, first compound 0.01 µM",113%
same,"viability, T/C",[3],108%
same,"viability, T/C",[4],77.6%
same,"viability, T/C","second compound 0.316 µM, first compound 0.000316 µM",106%
same,"viability, T/C","second compound 0.316 µM, first compound 0.001 µM",97.3%
same,"viability, T/C","second compound 0.316 µM, first compound 0.00316 µM",111%
same,"viability, T/C","second compound 0.316 µM, first compound 0.01 µM",97.2%
same,"viability, T/C",[5],104%
same,"viability, T/C",[6],83%
same,"viability, T/C","second compound 1 µM, first compound 0.000316 µM",108%
same,"viability, T/C","second compound 1 µM, first compound 0.001 µM",99.9%
same,"viability, T/C","second compound 1 µM, first compound 0.00316 µM",110%
same,"viability, T/C","second compound 1 µM, first compound 0.01 µM",93.9%
same,"viability, T/C",[7],91.2%
same,"viability, T/C",[8],77.6%
same,"viability, T/C","second compound 3.16 µM, first compound 0.000316 µM",99.4%
same,"viability, T/C","second compound 3.16 µM, first compound 0.001 µM",98%
same,"viability, T/C","second compound 3.16 µM, first compound 0.00316 µM",103%
same,"viability, T/C","second compound 3.16 µM, first compound 0.01 µM",90.5%
same,"viability, T/C",[9],99.3%
same,"viability, T/C",[10],95.7%
same,"viability, T/C","second compound 10 µM, first compound 0.000316 µM",94.8%
same,"viability, T/C","second compound 10 µM, first compound 0.001 µM",98.7%
same,"viability, T/C","second compound 10 µM, first compound 0.00316 µM",101%
same,"viability, T/C","second compound 10 µM, first compound 0.01 µM",90.9%
same,"viability, T/C",[11],89.9%
same,"viability, T/C",[12],65.1%
